Measurements reported in patent US20130195926A1, “MODULATION OF NITRIC OXIDE SIGNALING TO NORMALIZE TUMOR VASCULATURE” (The General Hospital Corporation, priority 2007, published 2013).

Assays:
nNOS = test: Western blot of nNOS knockdown in U87 tumors grown in cranial windows; format: in vivo; settings: U87 tumors in cranial windows in Rag-1-/- mice
Procedure: The stably transfected cells were selected with 80 μg/ml of hygromycin B. The expression of nNOS protein in U87 tumor cells and tissues was determined by'Western blot analysis. Cultured U87MG cells washed with PBS and U87MG tumors homogenized by a tissue grinder were solubilized in 40 mM Tris-HCl, pH 6.8, 2% SDS, 10% glycerol, 1% β-mercaptoethanol, 0.01% bromophenol blue with one Complete Mini Protease Inhibitor Cocktail tablet (Roche Diagnostics) per 50 ml buffer.
Equal amounts of 60 micrograms of protein per sample were separated on 7.5% SDS polyacrylamide gels, transferred onto polyvinylidene fluoride membrane (Millipore), incubated with primary antibodies followed by secondary antibodies (the same antibodies used in immunohistochemistry studies. See Immunohistochemistry methods below), and detected using enhanced chemiluminescence (GE Healthcare) by exposure on autoradiography films (Kodak) (Xu, L., et al. 2005 Cancer Res. 65, 5711-5719; Canneliet, P., et al. 1998 Nature 394, 485-490; Xu, L., et al. 2002 Journal of Biological Chemistry 277, 11368-11374 (2002); and Xu, L., et al. 2004 Clinical Cancer Research 10, 701-707).
Recombination activating gene 1 (Rag-1^−/−) mice backcrossed to C57BL/6 background or severe combined immunodeficiency (SCID) mice, bred and maintained in an gnotobiotic animal facility, were used. To obtain source tumor tissue, U87 tumor cells in culture (1×10^6 cells) were injected subcutaneously into Rag-1^−/− or SCID mice matching the recipient mice. When the tumor reached about 8 mm in diameter, it was excised after euthanasia and a small piece (about 1 mm^3) of viable tumor tissue was implanted into a cranial window or subcutaneously into the calf area of the right hindlegs of the mice as previously described (Kashiwagi, S., et al. 2005 J. Clin. Invest. 115, 1816-1827; Kozin, S. V., et al. 2001 Cancer Research 61, 39-44). […]
U87 with nNOS shRNA (shRNA58, shRNA97, and shRNA150) were grown in cranial windows in Rag-1^−/− mice. Expression of nNOS in these tumors was determined by Western blot analysis. […]

U87 tumors = test: Pimonidazole hypoxia staining and vessel density in U87 tumors grown in the hind leg; format: in vivo, mice; settings: for positive staining for hypoxia (Hypoxyprobe-1 adducts): subcutaneous hind leg tumors ~100 mm3, Rag-1-/- mice; for vessel density: subcutaneous hind leg tumors, compared to U87MG tumors
Procedure: To evaluate tumor hypoxia, a hypoxia marker pimonidazole was used (Winkler, F., et al. 2004 Cancer Cell 6, 553-563). Briefly, when tumors grown in the hindleg reached about 100 mm^3, 60 mg/kg pimonidazole was injected i.v. into the mice bearing subcutaneous tumors (100 mm^3) 1 hr before perfusion fixation following biotinylated lectin injection. Blood vessels were stained with a Alexa 488-conjugated streptavidin (Vector Laboratory). Pimonidazole-adducts in hypoxic cells were detected using Hypoxyprobe-1 kit (Millipore) stained with tetramethylrhodamine isothiocyanate (TRITC)-conjugated goat antibody to mouse IgG. Cell nuclei were counter-stained by 4,6-diamidino-2-phenylindole (DAPI). Fluorescent images were taken using confocal laser-scanning microscopy, and vessel density and the pimonidazole-positive hypoxic area were determined using NIH image 1.63 macro (Winkler, F., et al. 2004 Cancer Cell 6, 553-563).
The macro identified TRITC-pimonidazole positive area and Alexa 488-positive perfused vessel area and binarized them at the same threshold. The percent of pimonidazole positive area to the total area was determined, and then the number and the perimeters of the binarized vascular areas were quantified on image J software. These parameters were determined in three-five photographic areas from each tumor (630×630 μm^2 each).
The extent of hypoxia was determined in U87MG, U87-shRNA58, and U87-shRNA150 tumors utilizing a redox marker pimonidazole (Hypoxyprobe™-1 Kit, Millipore). To determine the level of hypoxia during a commonly used experimental radiation treatment, tumors were grown to ˜100 mm^3 subcutaneously in the hind leg of Rag-1^−/− mice. […] In nNOS silenced U87-shRNA58 tumors (U87-shRNA58 and U87-shRNA150), most of tumor cells have blood vessels in close proximity, and positive staining for hypoxia was hardly seen (FIG. 9A). In agreement with previous intravital observations in the cranium, increased vessel density was found in U87-shRNA58 and U87-shRNA150 tumors, as compared to U87MG tumors (FIG. 9B-C). Improved vascular morphology and function induced by the selective vascular localization of NO alleviate tumor tissue hypoxia (FIG. 9D). A reduction in hypoxia inducible factor-1α (HIF-1α) protein levels was also observed in the U87-shRNA58 and U87-shRNA150 tumors, as compared to U87MG tumors (FIG. 9E).

Substance | Knockdown efficiency of nNOS in vivo (nNOS) | positive staining for hypoxia (Hypoxyprobe-1 adducts) (U87 tumors) | vessel density (U87 tumors)
shRNA58: short-hairpin RNA for nNOS, CAAAGAGATCGACACCATC (sense), GATGGTGTCGATCTCTTTGTT (antisense), in pSilencer 3.1 H-1-hygro, stably transfected into U87MG | 98% | hardly seen | increased
shRNA150: short-hairpin RNA for nNOS, GGTCTATCCAATGTCCACA (sense), TGTGGACATTGGATAGACCTT (antisense), in pSilencer 3.1 H-1-hygro | 96% | hardly seen | increased
